The values below come from patent US20250287950A1, “FUNGICIDAL USE” (Adama Makhteshim Ltd., priority 2021, published 2025).

Assay [1] deals with Mycosphaerella fijiensis (black sigatoka). The assay can be described thus: Black sigatoka open field trial in banana, one application (Example 8a). It counts as in vivo. The protocol: To test for fungicidal control of Mycosphaerella fijiensis the trial was realized in open field. […] Each of the above treatments was applied once when plants were showing a disease infection of 5%. The treatments composed of 4 replicates. The experimental design was a randomized complete block design. Data was analyzed using an ANOVA at the 95% confidence interval.
The level of infection was determined based on the weighted average of infection (PPI) using the Stover scale modified by Gaulh on 5 plants per plot.

The test system is the same in assay [2]. The experiment in a line: Black sigatoka open field trial in banana, 12 applications, leaves per plant (Example 8b). The format is in vivo. The conditions noted are these: folpet 850 g a.i./ha. From the text:
To test fungicidal control of Mycosphaerella fijiensis, the trial was realized in open field. […] All treatments were applied in a water solution: no mineral oil added.
Experimental unit consisted of 9 banana plants surrounded by Musa textilis, a variety tolerant to Black Sigatoka, used as border plants. The trial followed a complete randomized design, each treatment was replicated three times.
Applications were done every 6 days. All treatments had 12 applications.
The total leaves per plant was evaluated. A high number of leaves at harvest translates to more capability keep the fruit in post-harvest.
Treatment response to black Sigatoka was evaluated using the Stover scale modified by Gauhl.
The statistical analysis was done with INFOSTAT program, using a multiple comparison test (LSD) for every parameter.

On to `O=C1c2ccccc2C(=O)N1SC(Cl)(Cl)Cl` [folpet], for which the “efficacy relative to the mancozeb reference product (in words)” value in assay [1] (dose of 750 g a.i./ha) is recorded as “comparable to the one provided by the reference product based on mancozeb”. For the same molecule, the “control of black sigatoka disease (in words)” value in assay [1] (low doses of 500 and 625 g a.i./ha) was “good control”. Besides, the “number of leaves per plant in comparison to the untreated and the mancozeb standard (in words)” value in assay [2] is recorded as “higher number of leaves per plant”.
